Assay results reported in BindingDB's records for PubMed 27607900 (Cardiff University, 2016).
pIC50: −log10 of the molar value.

Columns and labels:
Enterococcus faecalis = experiment: Antimicrobial activity against Enterococcus faecalis ATCC 29212 assessed as microbial growth inhibition
[1] = Inhibition of ACT (unknown origin)

Row | pIC50 [1] | Structure (SMILES) | pIC50 (Enterococcus faecalis)
1 |  | CCCC(C)CC(C)CC(C)/C=C(C)/C=C/C(O)C(C)C(=O)OC1C(O)CN2CC1NC[C@H]1O[C@@H](OC([C@H]3O[C@@H](n4ccc(=O)[nH]c4=O)[C@H](O)[C@@H]3OS(=O)(=O)O)C2C(=O)O)[C@H](O)[C@@H]1O (some centres not stated) | 7.92
2 | 6.84 | CC(C)OC(=O)[C@H](Cc1ccccc1)NP(=O)(N[C@@H](Cc1ccccc1)C(=O)OC(C)C)OCOCCn1cnc2c(N)nc(F)nc21 | 
